Source: patent US9169260B2 (MERCK SHARP & DOHME CORP., priority 2011, dated 2015)
Like-named read-outs stand apart in the source and are kept apart here.

Biological target: GST tagged IRAK-4 (Homo sapiens (Human), UniProt Q9NWZ3)
Assay: IRAK-4 Kinase Assay (IMAP fluorescence polarization)
Assay type: biochemical
Method: The kinase activity of IRAK-4 is determined by its ability to catalyze the phosphorylation of a fluorescent polypeptide substrate. The extent of phosphorylation is measured using the IMAP technology (Molecular Devices) where the phosphorylated fluorescent substrate binds to the large M(III)-based nanoparticles which reduces the rotational speed of the substrate and thus increases its fluorescent polarization (FP).
20 μl reaction mixture contains 10 mM TriHCl, pH 7.2, 0.5 nM GST tagged IRAK-4 (SignalChem), 100 nM fluorescent peptide substrate (RP7030, Molecular Devices), 100 μM ATP, 1 mM DTT, 1 mM MgCl2, and 0.01% Tween 20. The reaction is initiated by the addition of ATP. After incubation for 30 minutes at 25° C., 60 μl of Progressive IMAP Reagent (Molecular Devices) is added to stop the reaction. Change in RP7030's FP is determined by a FP reader (Analyst HT, LH, BioSystems).

[1] = 100 μM ATP, 30 minutes at 25° C., μM
[2] = 100 μM ATP, 30 minutes at 25° C.

GST tagged IRAK-4, sequence (Q9NWZ3 whole entry): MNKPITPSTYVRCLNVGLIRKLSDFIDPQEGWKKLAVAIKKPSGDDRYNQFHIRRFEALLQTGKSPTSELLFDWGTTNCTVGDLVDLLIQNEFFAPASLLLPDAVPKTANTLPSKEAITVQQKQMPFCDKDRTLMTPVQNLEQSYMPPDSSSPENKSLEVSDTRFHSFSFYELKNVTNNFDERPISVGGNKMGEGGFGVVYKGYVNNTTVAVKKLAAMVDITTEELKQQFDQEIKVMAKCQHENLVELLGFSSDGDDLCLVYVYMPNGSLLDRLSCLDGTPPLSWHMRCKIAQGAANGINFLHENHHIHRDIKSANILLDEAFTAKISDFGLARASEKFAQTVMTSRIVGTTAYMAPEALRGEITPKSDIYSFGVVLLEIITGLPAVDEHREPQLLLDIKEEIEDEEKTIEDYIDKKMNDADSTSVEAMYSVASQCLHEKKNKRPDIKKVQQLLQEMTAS

Row | SMILES | IC50 [1] [µM] | IC50 [2] [µM] | also measured
1 | Cc1ccc(-n2nc(C3CCN(C(C)CC(F)(F)F)CC3)cc2NC(=O)c2cnn3cccnc23)cc1 (stereo not drawn) [Example 260, N-{1-(4-methylphenyl)-3-[1-(3,3,3-trifluoro-1-methylpropyl)piperidin-4-yl]-1H-pyrazol-5-yl}pyrazolo[1,5-a]pyrimidine-3-carboxamide] | < 1 |  | 
2 | COc1ccc(-n2nc(C3CCN(C(C)C)CC3)cc2NC(=O)c2cnn3cccnc23)cc1 [Example 47, N-(3-(1-isopropylpiperidin-4-yl)-1-(4-methoxyphenyl)-1H-pyrazol-5-yl)pyrazolo[1,5-a]pyrimidine-3-carboxamide] |  | < 0.1 | 
3 | Cc1ccc(-n2nc(-c3cccc(NS(C)(=O)=O)c3)cc2NC(=O)c2cnn3cccnc23)cc1 [Example 346, N-[1-(4-methylphenyl)-3-{3-[(methylsulfonyl)amino]phenyl}-1H-pyrazol-5-yl]pyrazolo[1,5-a]pyrimidine-3-carboxamide] | < 1 |  | 
4 | CCC(=O)N1CC(N2CCC(c3cc(NC(=O)c4cnn5cccnc45)n(-c4ccc(C)cc4)n3)CC2)C1 [Example 249, N-{1-(4-methylphenyl)-3-[1-(1-propanoylazetidin-3-yl)piperidin-4-yl]-1H-pyrazol-5-yl}pyrazolo[1,5-a]pyrimidine-3-carboxamide] | < 1 |  | 
5 | COC(=O)N1CC(N2CCC(c3cc(NC(=O)c4cnn5cccnc45)n(-c4ccc(C)cc4)n3)CC2)C1 [Example 238, methyl 3-(4-{1′-(4-methylphenyl)-5-[(pyrazolo[1,5-a]pyrimidin-3-ylcarbonyl)amino]-1H-pyrazol-3-yl}piperidin-1-yl)azetidine-1-carboxylate] | < 1 |  | 
6 | CCOC(=O)N1CCC(N2CCC(c3cc(NC(=O)c4cnn5cccnc45)n(-c4ccc(C)cn4)n3)CC2)CC1 [Example 276, ethyl 4-{1-(5-methylpyridin-2-yl)-5-[(pyrazolo[1,5-a]pyrimidin-3-ylcarbonyl)amino]-1H-pyrazol-3-yl}-1,4′-bipiperidine-1′-carboxylate] |  | < 0.1 | 
7 | CC(C)N1CC(c2cc(NC(=O)c3cnn4cccnc34)n(-c3ccc(C4CC4)cc3F)n2)C1 [Example 88, N-(1-(4-cyclopropyl-2-fluorophenyl)-3-(1-isopropylazetidin-3-yl)-1H-pyrazol-5-yl)pyrazolo[1,5-a]pyrimidine-3-carboxamide] |  | < 0.1 | 
8 | Cc1ccc(-n2nc(C3CCN(S(C)(=O)=O)CC3)cc2NC(=O)c2cnn3cccnc23)cn1 [Example 168, N-(1-(6-methylpyridin-3-yl)-3-(1-(methylsulfonyl)piperidin-4-yl)-1H-pyrazol-5-yl)pyrazolo[1,5-a]pyrimidine-3-carboxamide] |  |  | IC50: < 1 µM
9 | CCNC(=O)N1CC(N2CCC(c3cc(NC(=O)c4cnn5cccnc45)n(-c4ccc(C)cc4)n3)CC2)C1 [Example 237, N-[3-{1-[1-(ethylcarbamoyl)azetidin-3-yl]piperidin-4-yl}-1-(4-methylphenyl)-1H-pyrazol-5-yl]pyrazolo[1,5-a]pyrimidine-3-carboxamide] | < 1 |  | 
10 | Cc1ccc(-n2nc(C3CCN(Cc4ccn[nH]4)CC3)cc2NC(=O)c2cnn3cccnc23)cc1 [Example 230, N-{1-(4-methylphenyl)-3-[1-(1H-pyrazol-5-ylmethyl)piperidin-4-yl]-1H-pyrazol-5-yl}pyrazolo[1,5-a]pyrimidine-3-carboxamide] |  | < 0.1 | 
11 | Cc1ccc(-n2nc(C3CC3)cc2NC(=O)c2cnn3cccnc23)cc1 [Example 130, N-(3-cyclopropyl-1-(p-tolyl)-1H-pyrazol-5-yl)pyrazolo[1,5-a]pyrimidine-3-carboxamide] | < 1 |  | 
12 | Cc1ccc(-n2nc(C3CCC(O)CC3)cc2NC(=O)c2cnn3cccnc23)cc1 (stereo not drawn) [Example 6, N-(3-(4-hydroxycyclohexyl)-1-(p-tolyl)-1H-pyrazol-5-yl)pyrazolo[1,5-a]pyrimidine-3-carboxamide] | < 1 |  | 
13 | Cc1ccc(-n2nc(C3CCN(C(=O)C4(O)CCC4)CC3)cc2NC(=O)c2cnn3cc(Br)cnc23)cc1 [Example 116, 6-bromo-N-(3-(1-(1-hydroxycyclobutanecarbonyl)piperidin-4-yl)-1-(p-tolyl)-1H-pyrazol-5-yl)pyrazolo[1,5-a]pyrimidine-3-carboxamide] |  | < 0.1 | 
14 | CS(=O)(=O)N1CCC(c2cc(NC(=O)c3cnn4cccnc34)n(-c3ccc(C4CC4)cc3F)n2)CC1 [Example 73, N-(1-(4-cyclopropyl-2-fluorophenyl)-3-(1-(methylsulfonyl)piperidin-4-yl)-1H-pyrazol-5-yl)pyrazolo[1,5-a]pyrimidine-3-carboxamide] |  | < 0.1 | 
15 | CC(C)(N)c1ccc(-n2nc(C3CCN(S(C)(=O)=O)CC3)cc2NC(=O)c2cnn3cccnc23)nc1 [Example 159, N-(1-(5-(2-aminopropan-2-yl)pyridin-2-yl)-3-(1-(methylsulfonyl)piperidin-4-yl)-1H-pyrazol-5-yl)pyrazolo[1,5-a]pyrimidine-3-carboxamide] |  | < 0.1 | 
16 | Cc1ccc(-n2nc(C3CCN(C4CN(S(=O)(=O)CF)C4)CC3)cc2NC(=O)c2cnn3cccnc23)cc1 [Example 247, N-[3-(1-{1-[(fluoromethyl)sulfonyl]azetidin-3-yl]piperidin-4-yl)-1-(4-methylphenyl)-1H-pyrazol-5-yl}pyrazolo[1,5-a]pyrimidine-3-carboxamide] | < 1 |  | 
17 | Cc1ccc(-n2nc(C3CCN(S(=O)(=O)CCC(F)(F)F)CC3)cc2NC(=O)c2cnn3cccnc23)cc1 [Example 363, N-[1-(4-methylphenyl)-3-{1-[(3,3,3-trifluoropropyl)sulfonyl]piperidin-4-yl}-1H-pyrazol-5-yl]pyrazolo[1,5-a]pyrimidine-3-carboxamide] | < 1 |  | 
18 | Cc1ccc(-n2nc(C3CCN(C4CC[C@@H](C)C4)CC3)cc2NC(=O)c2cnn3cccnc23)nc1 (stereo partly drawn) [Example 273, N-[3-{1-[(3R)-3-methylcyclopentyl]piperidin-4-yl}-1-(5-methylpyridin-2-yl)-1H-pyrazol-5-yl]pyrazolo[1,5-a]pyrimidine-3-carboxamide] |  | < 0.1 | 
19 | COc1ccc(-n2nc(C3CCNCC3)cc2NC(=O)c2cnn3cccnc23)cc1 [Example 8, N-(1-(4-methoxyphenyl)-3-(piperidin-4-yl)-1H-pyrazol-5-yl)pyrazolo[1,5-a]pyrimidine-3-carboxamide] | < 1 |  | 
20 | Cc1ccc(-n2nc(C3CCCNC3)cc2NC(=O)c2cnn3cccnc23)cc1 (stereo not drawn) [Example 42, N-(3-(piperidin-3-yl)-1-(p-tolyl)-1H-pyrazol-5-yl)pyrazolo[1,5-a]pyrimidine-3-carboxamide] | < 1 |  | 
21 | Cc1ccc(-n2nc(C3COCCN3)cc2NC(=O)c2cnn3cccnc23)nc1 (stereo not drawn) [Example 166, N-(1-(5-methylpyridin-2-yl)-3-(morpholin-3-yl)-1H-pyrazol-5-yl)pyrazolo[1,5-a]pyrimidine-3-carboxamide] | < 1 |  | 
22 | Cc1ccc(-n2nc(C3CCN(S(C)(=O)=O)CC3)cc2NC(=O)c2cnn3cc(C#N)cnc23)cc1 [Example 121, 6-cyano-N-(3-(1-(methylsulfonyl)piperidin-4-yl)-1-(p-tolyl)-1H-pyrazol-5-yl)pyrazolo[1,5-a]pyrimidine-3-carboxamide] | < 1 |  | 
23 | Cc1cnc(-n2nc(C3CCN(S(=O)(=O)C4CC4)CC3)cc2NC(=O)c2cnn3cccnc23)nc1 [Example 171, N-(3-(1-(cyclopropylsulfonyl)piperidin-4-yl)-1-(5-methylpyrimidin-2-yl)-1H-pyrazol-5-yl)pyrazolo[1,5-a]pyrimidine-3-carboxamide] | < 1 |  | 
24 | COc1ccc(-n2nc(C3CCN(S(=O)(=O)C4CC4)CC3)cc2NC(=O)c2cnn3cccnc23)cc1 [Example 24, N-(3-(1-(cyclopropylsulfonyl)piperidin-4-yl)-1-(4-methoxyphenyl)-1H-pyrazol-5-yl)pyrazolo[1,5-a]pyrimidine-3-carboxamide] |  | < 0.1 | 
25 | CS(=O)(=O)N1CCC(c2cc(NC(=O)c3cnn4cccnc34)n(-c3ccc(Cl)cc3F)n2)CC1 [Example 29, N-(1-(4-chloro-2-fluorophenyl)-3-(1-(methylsulfonyl)piperidin-4-yl)-1H-pyrazol-5-yl)pyrazolo[1,5-a]pyrimidine-3-carboxamide] | < 1 |  | 
26 | Cc1ccc(-n2nc(C3CN(Cc4cccnc4)C3)cc2NC(=O)c2cnn3cccnc23)cc1 [Example 314, N-{1-(4-methylphenyl)-3-[1-(pyridin-3-ylmethyl)azetidin-3-yl]-1H-pyrazol-5-yl}pyrazolo[1,5-a]pyrimidine-3-carboxamide] |  | < 0.1 | 
27 | Cc1ccc(-n2nc(C3CCN(C4CCC(N(C)S(C)(=O)=O)CC4)CC3)cc2NC(=O)c2cnn3cccnc23)nc1 (stereo not drawn) [Example 262, N-[3-(1-{4-[methyl(methylsulfonyl)amino]cyclohexyl}piperidin-4-yl)-1-(5-methylpyridin-2-yl)-1H-pyrazol-5-yl]pyrazolo[1,5-a]pyrimidine-3-carboxamide] |  | < 0.1 | 
28 | COc1ccc(-n2nc(-c3ccncc3)cc2NC(=O)c2cnn3cccnc23)cc1 [Example 127, N-(1-(4-methoxyphenyl)-3-(pyridin-4-yl)-1H-pyrazol-5-yl)pyrazolo[1,5-a]pyrimidine-3-carboxamide] | < 1 |  | 
29 | Cc1ccc(-n2nc(C3CCC(N(C)C)CC3)cc2NC(=O)c2cnn3cccnc23)cc1 (stereo not drawn) [Example 5, N-(3-(4-(dimethylamino)cyclohexyl)-1-(p-tolyl)-1,4-pyrazol-5-yl)pyrazolo[1,5-a]pyrimidine-3-carboxamide] | < 1 |  | 
30 | Cc1ccc(-n2nc(C3CCN(C(C)C)CC3)cc2NC(=O)c2cnn3cccnc23)nc1 [Example 270, N-{3-[1-(1-methylethyl)piperidin-4-yl]-1-(5-methylpyridin-2-yl)-1H-pyrazol-5-yl}pyrazolo[1,5-a]pyrimidine-3-carboxamide] |  | < 0.1 | 
